In patent US12599136B2, “Substituted isophthalic acid diamides and their use as herbicides” (Bayer Aktiengesellschaft, priority 2020, dated 2026):

Columns and labels:
Assay type in all cases: in vivo
Hordeum murinum [1] = experiment: Post-emergence herbicidal action against HORMU; settings: 80 g/ha
Method: Seeds of monocotyledonous and dicotyledonous weed and crop plants are laid out in sandy loam soil in wood-fiber pots, covered with soil and cultivated in a greenhouse under good growth conditions. 2 to 3 weeks after sowing, the test plants are treated at the one-leaf stage. The compounds of the invention, formulated in the form of wettable powders (WP) or as emulsion concentrates (EC), are then sprayed onto the green parts of the plants in the form of an aqueous suspension or emulsion at a water application rate equivalent to 600 to 800 l/ha, with addition of 0.2% wetting agent. After the test plants have been left to stand in the greenhouse under optimal growth conditions for about 3 weeks, the action of the preparations is assessed visually in comparison to untreated controls (herbicidal action in percent (%): 100% activity=the plants have died, 0% activity=like control plants). […] The tables below illustrate, in an illustrative manner, the post-emergence herbicidal action of the compounds of the invention, the herbicidal activity being stated in percent.

Avena fatua [2] = experiment: Pre-emergence herbicidal action against AVEFA; settings: visual score after 3 weeks vs untreated controls
How it was run: (§1)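 Pre-emergence soil-surface spray of formulated compound (WP or EC; 600 to 800 l/ha; 0.2% wetting agent) over seeds sown in sandy loam. After 3 weeks under greenhouse conditions, damage is estimated visually in percent against untreated plants.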

Pharbitis purpurea = experiment: Post-emergence herbicidal action against PHBPU; settings: visual assessment about 3 weeks after treatment
How it was run: (§2)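 Greenhouse plants in sandy loam were sprayed at the one-leaf stage, 2 to 3 weeks after sowing, with WP or EC formulations as aqueous suspension or emulsion (600 to 800 l/ha water, 0.2% wetting agent). Visual damage was scored about 3 weeks later versus untreated controls, 0% = like control, 100% = dead.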

Viola tricolor [3] = experiment: Post-emergence herbicidal action against VIOTR; settings: 80 g/ha
How it was run: as §2

Veronica persica [4] = experiment: Pre-emergence herbicidal action against VERPE; settings: 320 g/ha
How it was run: as §1

Amaranthus retroflexus [5] = experiment: Pre-emergence herbicidal action against AMARE; settings: visual score after 3 weeks vs untreated controls
How it was run: as §1

Abutilon theophrasti [6] = experiment: Post-emergence herbicidal action against ABUTH
How it was run: as §2

Stellaria media [7] = experiment: Pre-emergence herbicidal action against STEME
How it was run: as §1

Hordeum murinum [8] = experiment: Pre-emergence herbicidal action against HORMU; settings: 320 g/ha; visual score after 3 weeks vs untreated controls
Description: Seeds of monocotyledonous and dicotyledonous weed plants and crop plants are laid out in sandy loam soil in wood-fiber pots and covered with soil. The compounds of the invention, formulated in the form of wettable powders (WP) or as emulsion concentrates (EC), are then applied to the surface of the covering soil in the form of an aqueous suspension or emulsion at a water application rate equivalent to 600 to 800 l/ha, with addition of 0.2% wetting agent. After the treatment, the pots are placed in a greenhouse and kept under good growth conditions for the trial plants. The damage to the test plants is scored visually after a test period of 3 weeks by comparison with untreated controls (herbicidal activity in percent (%): 100% activity=the plants have died, 0% activity=like control plants). […] The tables below illustrate, in an illustrative manner, the post-emergence herbicidal action of the compounds of the invention, the herbicidal activity being stated in percent.

Setaria viridis [9] = experiment: Pre-emergence herbicidal action against SETVI
How it was run: as §1

Cyperus esculentus = experiment: Pre-emergence herbicidal action against CYPES; settings: visual score after 3 weeks vs untreated controls
How it was run: as §1

Veronica persica [10] = experiment: Post-emergence herbicidal action against VERPE; settings: visual assessment about 3 weeks after treatment
How it was run: as §2

Abutilon theophrasti [11] = experiment: Pre-emergence herbicidal action against ABUTH; settings: visual score after 3 weeks vs untreated controls
How it was run: as §1

Viola tricolor [12] = experiment: Pre-emergence herbicidal action against VIOTR
How it was run: as §1

Amaranthus retroflexus [13] = experiment: Post-emergence herbicidal action against AMARE; settings: visual assessment about 3 weeks after treatment
How it was run: as §2

Matricaria inodora [14] = experiment: Post-emergence herbicidal action against MATIN; settings: 80 g/ha, visual assessment about 3 weeks after treatment
How it was run: as §2

Avena fatua [15] = experiment: Post-emergence herbicidal action against AVEFA; settings: 80 g/ha, visual assessment about 3 weeks after treatment
How it was run: as §2

Stellaria media [16] = experiment: Post-emergence herbicidal action against STEME; settings: visual assessment about 3 weeks after treatment
How it was run: as §2

Matricaria inodora [17] = experiment: Pre-emergence herbicidal action against MATIN; settings: visual score after 3 weeks vs untreated controls
How it was run: as §1

Setaria viridis [18] = experiment: Post-emergence herbicidal action against SETVI; settings: 80 g/ha, visual assessment about 3 weeks after treatment
How it was run: as §2

Lolium rigidum = experiment: Pre-emergence herbicidal action against LOLRI; settings: 320 g/ha
How it was run: as §1

Alopecurus myosuroides [19] = experiment: Pre-emergence herbicidal action against ALOMY; settings: visual score after 3 weeks vs untreated controls
How it was run: as §1

Echinochloa crus-galli [20] = experiment: Pre-emergence herbicidal action against ECHCG; settings: visual score after 3 weeks vs untreated controls
How it was run: as §1

Echinochloa crus-galli [21] = experiment: Post-emergence herbicidal action against ECHCG; settings: visual assessment about 3 weeks after treatment
How it was run: as §2

Polygonum convolvulus = experiment: Pre-emergence herbicidal action against POLCO; settings: 320 g/ha
How it was run: as §1

Alopecurus myosuroides [22] = experiment: Post-emergence herbicidal action against ALOMY; settings: 80 g/ha
How it was run: as §2

CN(C(=O)c1c(Cl)ccc(C(=O)Nc2nnnn2C)c1Cl)c1ccccc1 [Example 1-398]
Post-emergence action against HORMU in % (Hordeum murinum [1]): 80%
Pre-emergence action against AVEFA (Avena fatua [2]; 80 g/ha): 80%
Pre-emergence action against AVEFA (Avena fatua [2]; 320 g/ha): 90%
Post-emergence action against PHBPU in % (Pharbitis purpurea; 20 g/ha): 80%
Post-emergence action against PHBPU in % (Pharbitis purpurea; 80 g/ha): 80%
Post-emergence action against VIOTR in % (Viola tricolor [3]): 90%
Pre-emergence action against VERPE (Veronica persica [4]): 100%
Pre-emergence action against AMARE (Amaranthus retroflexus [5]; 20 g/ha): 90%
Pre-emergence action against AMARE (Amaranthus retroflexus [5]; 80 g/ha): 100%
Pre-emergence action against AMARE (Amaranthus retroflexus [5]; 320 g/ha): 100%
Post-emergence action against ABUTH (Abutilon theophrasti [6]; 20 g/ha): 100%
Post-emergence action against ABUTH (Abutilon theophrasti [6]; 80 g/ha): 100%
Pre-emergence action against STEME (Stellaria media [7]; 20 g/ha): 90%
Pre-emergence action against STEME (Stellaria media [7]; 80 g/ha): 100%
Pre-emergence action against STEME (Stellaria media [7]; 320 g/ha): 100%
Pre-emergence action against HORMU (Hordeum murinum [8]): 100%
Pre-emergence action against SETVI (Setaria viridis [9]; 80 g/ha): 100%
Pre-emergence action against SETVI (Setaria viridis [9]; 320 g/ha): 100%
Pre-emergence action against CYPES (Cyperus esculentus; 80 g/ha): 80%
Pre-emergence action against CYPES (Cyperus esculentus; 320 g/ha): 90%
Post-emergence action against VERPE in % (Veronica persica [10]; 20 g/ha): 80%
Post-emergence action against VERPE in % (Veronica persica [10]; 80 g/ha): 90%
Pre-emergence action against ABUTH (Abutilon theophrasti [11]; 20 g/ha): 100%
Pre-emergence action against ABUTH (Abutilon theophrasti [11]; 80 g/ha): 100%
Pre-emergence action against ABUTH (Abutilon theophrasti [11]; Dosage column 320 g/ha (heading prints 3200 g/ha)): 100%
Pre-emergence action against VIOTR (Viola tricolor [12]; 80 g/ha): 80%
Pre-emergence action against VIOTR (Viola tricolor [12]; 320 g/ha): 100%
Post-emergence action against AMARE in % (Amaranthus retroflexus [13]; 5 g/ha): 80%
Post-emergence action against AMARE in % (Amaranthus retroflexus [13]; 20 g/ha): 100%
Post-emergence action against AMARE in % (Amaranthus retroflexus [13]; 80 g/ha): 100%
Post-emergence action against MATIN in % (Matricaria inodora [14]): 90%
Post-emergence action against AVEFA in % (Avena fatua [15]): 80%
Post-emergence action against STEME in % (Stellaria media [16]; 5 g/ha): 80%
Post-emergence action against STEME in % (Stellaria media [16]; 20 g/ha): 90%
Post-emergence action against STEME in % (Stellaria media [16]; 80 g/ha): 100%
Pre-emergence action against MATIN (Matricaria inodora [17]; 20 g/ha): 90%
Pre-emergence action against MATIN (Matricaria inodora [17]; 80 g/ha): 100%
Pre-emergence action against MATIN (Matricaria inodora [17]; 320 g/ha): 100%
Post-emergence action against SETVI in % (Setaria viridis [18]): 100%
Pre-emergence action against LOLRI (Lolium rigidum): 90%
Pre-emergence action against ALOMY (Alopecurus myosuroides [19]; 20 g/ha): 80%
Pre-emergence action against ALOMY (Alopecurus myosuroides [19]; 80 g/ha): 100%
Pre-emergence action against ALOMY (Alopecurus myosuroides [19]; 320 g/ha): 100%
Pre-emergence action against ECHCG (Echinochloa crus-galli [20]; 80 g/ha): 80%
Pre-emergence action against ECHCG (Echinochloa crus-galli [20]; 320 g/ha): 100%
Post-emergence action against ECHCG in % (Echinochloa crus-galli [21]; 20 g/ha): 100%
Post-emergence action against ECHCG in % (Echinochloa crus-galli [21]; 80 g/ha): 100%
Pre-emergence action against POLCO (Polygonum convolvulus): 100%
Post-emergence action against ALOMY (Alopecurus myosuroides [22]): 100%
